Read-outs that look alike come from different tables or passages of the source.
Assays:
KMT9 [1] = biological target: T1, KMT9 (Homo sapiens, UniProt Q9Y5N5); assay: Microscale thermophoresis (MST) KMT9 binding
T1 sequence (Q9Y5N5 1-214): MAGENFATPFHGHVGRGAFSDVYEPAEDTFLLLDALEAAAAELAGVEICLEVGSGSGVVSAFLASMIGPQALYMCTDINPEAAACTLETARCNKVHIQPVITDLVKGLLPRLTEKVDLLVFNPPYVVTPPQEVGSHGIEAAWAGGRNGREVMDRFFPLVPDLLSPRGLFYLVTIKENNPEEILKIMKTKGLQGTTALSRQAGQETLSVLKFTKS
T1 sequence (Q9UI30 1-120 isoform Q9UI30-2 partner): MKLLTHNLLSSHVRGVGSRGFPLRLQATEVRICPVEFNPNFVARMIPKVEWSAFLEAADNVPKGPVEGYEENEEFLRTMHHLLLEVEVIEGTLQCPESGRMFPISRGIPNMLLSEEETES
Outline: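 Kd from microscale thermophoresis: compound series against 20 nM His-KMT9 labelled via RED-Tris-NTA, buffer 25 mM HEPES (pH 7.5)/100 mM NaCl/1 mM DTT/0.05% Tween, 40% MST power, 100% LED. Reported as classes: A ≤10 nM, B >10–100 nM, C >100–1000 nM, D >1000 nM.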

KMT9 [2] = biological target: T1, KMT9; assay: KMT9 thermal shift assay (SyproOrange); assay type: binding
Outline: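 ΔTm versus DMSO-only control is reported in bins (>20 K, 15–20 K, 10–15 K, ≤10 K), using Tm from Boltzmann sigmoidal fits of SyproOrange melt curves. KMT9 with compound in pH 8.5 BTP buffer containing MgCl2 and DTT was preincubated at 25° C, then ramped 1° C per 15 s up to 95° C.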

KMT9 [3] = biological target: T1, KMT9; assay: KMT9 methyltransferase inhibition assay, MTaseGlo luminescence (from entry 155); assay type: biochemical; details: 100 nM KMT9, 5 μM ETF1, 1 μM SAM
Outline: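 KMT9 (100 nM final) pre-incubated with inhibitor for 15 min at room temperature, then reacted with 5 μM ETF1 and 1 μM SAM for 2 h at 30° C. at 2% DMSO final. MTaseGlo luminescence read after 60 min detection; IC50 reported in four potency bins.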

[4] = His-tag labelled KMT9 20 nM, Kd class, read-out: MST
[5] = ΔTm class, 500 uM compound, 2 μM KMT9, read-out: Thermal shift
[6] = IC50 class, MTaseGlo procedure (entries from 155 on), read-out: Inhibition
[7] = microscale thermophoresis, His-tag labelled KMT9 (20 nM), read-out: MST
[8] = ΔTm, 500 µM compound, 2 μM KMT9, 5X SO, read-out: Thermal shift
[9] = from entry 155: MTaseGlo assay, read-out: Inhibition

Compound	Kd (KMT9 [1]; [4])	ΔTm at 500 µM (KMT9 [2]; [5])	IC50 (KMT9 [3]; [6])	Kd (KMT9 [1]; [7])	ΔTm at 500 µM (KMT9 [2]; [8])	IC50 (KMT9 [3]; [9])	further results
O[C@@H]1[C@@H](CNCCCNCCc2ccc(C(F)(F)F)cc2)C[C@@H](n2cc(-c3cc(Cc4ccccc4)cs3)c3cncnc32)[C@@H]1O [Compound 619, (1R,2S,3R,5R)-3-(5-(4-Benzylthiophen-2-yl)-7H-pyrrolo[2,3-d]pyrimidin-7-yl)-5-(((3-((4-(trifluoromethyl)phenethyl)amino)propyl)amino)methyl)cyclopentane-1,2-diol]	> 1000 nM	≤ 10 °C	> 10000 nM	–	–	–	–
CN(CCCNCCc1ccccc1)C[C@H]1C[C@@H](n2cc(-c3cc(Cc4ccccc4)cs3)c3cncnc32)[C@H](O)[C@@H]1O [Compound 620, (1R,2S,3R,5R)-3-[5-(4-Benzylthiophen-2-yl)pyrrolo[2,3-d]pyrimidin-7-yl]-5-{[methyl({3-[(2-phenylethyl)amino]propyl})amino]methyl}cyclopentane-1,2-diol]	100 to 1000 nM	10 to 15 °C	1000 to 10000 nM	–	–	–	–
O[C@@H]1[C@@H](CNCCCNCCc2ccccc2)C[C@@H](n2cc(-c3cc(Cc4ccccc4)cs3)c3cnc(Cl)nc32)[C@@H]1O [Compound 621, (1R,2S,3R,5R)-3-[5-(4-Benzylthiophen-2-yl)-2-chloropyrrolo[2,3-d]pyrimidin-7-yl]-5-[{{3-[(2-phenylethyl)amino]propyl}amino)methyl]cyclopentane-1,2-diol]	–	–	–	100 to 1000 nM	15 to 20 °C	1000 to 10000 nM	–
CS(=O)(=O)n1ccc(-c2cn([C@@H]3C[C@H](CNCCCNCCc4ccccc4)[C@@H](O)[C@H]3O)c3nc(Cl)ncc23)n1 [Compound 622, (1R,2S,3R,5R)-3-(2-Chloro-5-(1-(methylsulfonyl)-1H-pyrazol-3-yl)-7H-pyrrolo[2,3-d]pyrimidin-7-yl)-5-(((3-(phenethylamino)propyl)amino)methyl)cyclopentane-1,2-diol]	100 to 1000 nM	15 to 20 °C	100 to 1000 nM	–	–	–	–
O[C@@H]1[C@@H](CNCCCNCCc2ccccc2)C[C@@H](n2cc3c4c(ncnc42)NCCC3)[C@@H]1O [Compound 628, (1S,2R,3R,5R)-3-(((3-(Phenethylamino)propyl)amino)methyl)-5-(6,7,8,9-tetrahydro-2H-2,3,5,6-tetraazabenzo[cd]azulen-2-yl)cyclopentane-1,2-diol]	–	–	–	100 to 1000 nM	10 to 15 °C	1000 to 10000 nM	–
O[C@@H]1[C@@H](CNCCCNCCc2ccccc2)C[C@@H](n2cc3c4c(ncnc42)NCCCC3)[C@@H]1O [Compound 631, (1S,2R,3R,5R)-3-(((3-(phenethylamino)propyl)amino)methyl)-5-(7,8,9,10-tetrahydro-2,3,5,6-tetraazacycloocta [cd]inden-2 (6H)-yl)cyclopentane-1,2-diol]	–	–	–	10 to 100 nM	10 to 15 °C	1000 to 10000 nM	–
O[C@@H]1[C@@H](CNCCCNCCc2ccccc2)C[C@@H](n2cc(-c3nc(Cc4ccccc4)cs3)c3cnc(Cl)nc32)[C@@H]1O [Compound 634, (1R,2S,3R,5R)-3-(5-(4-Benzylthiazol-2-yl)-2-chloro-7H-pyrrolo[2,3-d]pyrimidin-7-yl)-5-(((3-(phenethylamino)propyl)amino)methyl)cyclopentane-1,2-diol]	–	–	–	10 to 100 nM	15 to 20 °C	1000 to 10000 nM	–
Nc1nc(Cl)nc2c1c(-c1nc(Cc3ccccc3)cs1)cn2[C@@H]1C[C@H](CNCCCNCCc2ccccc2)[C@@H](O)[C@H]1O [Compound 635, (1R,2S,3R,5R)-3-(4-Amino-5-(4-benzylthiazol-2-yl)-2-chloro-7H-pyrrolo[2,3-d]pyrimidin-7-yl)-5-(((3-(phenethylamino)propyl)amino)methyl)cyclopentane-1,2-diol]	–	–	–	100 to 1000 nM	15 to 20 °C	100 to 1000 nM	–
Nc1nc(Cl)nc2c1c(-c1ccn(Cc3ccccc3)n1)cn2[C@@H]1C[C@H](CNCCCNCCc2ccccc2)[C@@H](O)[C@H]1O [Compound 636, (1R,2S,3R,5R)-3-(4-Amino-5-(1-benzyl-1H-pyrazol-3-yl)-2-chloro-7H-pyrrolo[2,3-d]pyrimidin-7-yl)-5-(((3-(phenethylamino)propyl)amino)methyl)cyclopentane-1,2-diol]	–	–	–	≤ 10 nM	> 20 °C	100 to 1000 nM	–
O[C@@H]1[C@@H](CNCCCNCCc2ccccc2)C[C@@H](n2cc(-c3cc(Cc4ccccc4)cs3)c3cncnc32)[C@@H]1O [Compound 637, (1R,2S,3R,5R)-3-(5-(4-benzylthiophen-2-yl)-7H-pyrrolo[2,3-d]pyrimidin-7-yl)-5-(((3-(phenethylamino)propyl)amino)methyl)cyclopentane-1,2-diol]	–	–	–	> 1000 nM	10 to 15 °C	1000 to 10000 nM	–
O[C@@H]1[C@@H](CNCCCNCCc2ccccc2)C[C@@H](n2cc(-c3nccs3)c3cnc(Cl)nc32)[C@@H]1O [Compound 638, (1R,2S,3R,5R)-3-(2-Chloro-5-(thiazol-2-yl)-7H-pyrrolo[2,3-d]pyrimidin-7-yl)-5-(((3-(phenethylamino)propyl)amino)methyl)cyclopentane-1,2-diol]	–	–	–	100 to 1000 nM	15 to 20 °C	1000 to 10000 nM	–
O[C@@H]1[C@@H](CNCCCNCCc2ccccc2)C[C@@H](n2cc(-c3nc(Oc4ccccc4)cs3)c3cncnc32)[C@@H]1O [Compound 639, (1S,2R,3R,5R)-3-(((3-(Phenethylamino)propyl)amino)methyl)-5-(5-(4-phenoxythiazol-2-yl)-7H-pyrrolo[2,3-d]pyrimidin-7-yl)cyclopentane-1,2-diol]	–	–	–	> 1000 nM	10 to 15 °C	1000 to 10000 nM	–
CS(=O)(=O)n1ccc(-c2cn([C@@H]3C[C@H](CNCCCNCCc4ccccc4)[C@@H](O)[C@H]3O)c3ncncc23)n1 [Compound 640, (1R,2S,3R,5R)-3-(5-(1-(Methylsulfonyl)-1H-pyrazol-3-yl)-7H-pyrrolo[2,3-d]pyrimidin-7-yl)-5-(((3-(phenethylamino)propyl)amino)methyl)cyclopentane-1,2-diol]	–	–	–	> 1000 nM	10 to 15 °C	1000 to 10000 nM	–
O[C@@H]1[C@@H](CN(CCCNCCc2ccccc2)c2cn[nH]c2)C[C@@H](n2cc(-c3cccs3)c3cnc(Cl)nc32)[C@@H]1O [Compound 641, (1R,2S,3R,5R)-3-(2-Chloro-5-(thiophen-2-yl)-7H-pyrrolo[2,3-d]pyrimidin-7-yl)-5-(((3-(phenethylamino)propyl)(1H-pyrazol-4-yl)amino)methyl)cyclopentane-1,2-diol]	≤ 10 nM	15 to 20 °C	100 to 1000 nM	–	–	–	–
CN(CCCNCCc1ccc(F)cc1)C[C@H]1C[C@@H](n2cc(-c3ccn(Cc4ccccc4)n3)c3cnc(Cl)nc32)[C@H](O)[C@@H]1O [Compound 642, (1R,2S,3R,5R)-3-[5-(1-Benzylpyrazol-3-yl)-2-chloropyrrolo[2,3-d]pyrimidin-7-yl]-5-{[(3-{[2-(4-fluorophenyl)ethyl]amino}propyl)(methyl)amino]methyl}cyclopentane-1,2-diol]	10 to 100 nM	15 to 20 °C	1000 to 10000 nM	–	–	–	–
CN(CCCNCCc1ccc(F)cc1)C[C@H]1C[C@@H](n2cc(-c3ccn(Cc4ccccc4)n3)c3c(N)nc(Cl)nc32)[C@H](O)[C@@H]1O [Compound 643, (1R,2S,3R,5R)-3-[4-Amino-5-(1-benzylpyrazol-3-yl)-2-chloropyrrolo[2,3-d]pyrimidin-7-yl]-5-{[(3-{[2-(4-fluorophenyl)ethyl]amino}propyl)(methyl)amino]methyl}cyclopentane-1,2-diol]	–	–	–	–	–	–	Kd (KMT9 [1]; His-tag labelled KMT9 20 nM, read-out: MST (Kd)): ≤ 10 nM; ΔTm at 500 µM (KMT9 [2]; 500 µM compound, 2 μM KMT9, read-out: Thermal shift (ΔTm)): > 20 °C; IC50 (KMT9 [3]; MTaseGlo procedure (entries from 155), read-out: Inhibition (IC50)): 100 to 1000 nM
CN(CCCNCCc1ccc(F)cc1)C[C@H]1C[C@@H](n2cc(-c3ccn(C)n3)c3cnc(Cl)nc32)[C@H](O)[C@@H]1O [Compound 644, (1R,2S,3R,5R)-3-[2-Chloro-5-(1-methylpyrazol-3-yl)pyrrolo[2,3-d]pyrimidin-7-yl]-5-{[(3-{[2-(4-fluorophenyl)ethyl]amino}propyl)(methyl)amino]methyl}cyclopentane-1,2-diol]	> 1000 nM	≤ 10 °C	> 10000 nM	–	–	–	–

From patent US20250188110A1, “SPECIFIC SMALL MOLECULE INHIBITORS THAT BLOCK KMT9 METHYLTRANSFERASE ACTIVITY AND FUNCTION” (ALBERT-LUDWIGS-UNIVERSITÄT FREIBURG, priority 2021, published 2025)
